What was measured:
[1] = system: corn; assay: Test C postemergence corn; type: in vivo, Zea mays; settings: 0 to 100 scale, 0 no effect, 100 complete control
Summary of the method: (§1)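 Activity is expressed as percent-style visual control, 0 (no effect) to 100 (complete control), assessed approximately 14 to 21 days after application, relative to untreated plants. Application was postemergence, using a non-phytotoxic solvent formulation with surfactant.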

[2] = system: deadnettle; assay: Test E deadnettle; type: in vivo, Lamium amplexicaule; settings: Preemergence
[3] = system: wild mustard; assay: Test E wild mustard; type: in vivo, Sinapis arvensis; settings: Preemergence
[4] = system: galium; assay: Test E galium; type: in vivo, Galium aparine; settings: Preemergence
[5] = system: kochia; assay: Test E kochia; type: in vivo, Kochia scoparia; settings: Postemergence
Method: (§2) Compounds evaluated in this test were formulated in a non-phytotoxic solvent mixture which included a surfactant and applied to plants that were in the 1- to 4-leaf stage (postemergence application). A mixture of sandy loam soil and greenhouse potting mix in a 60:40 ratio was used for the postemergence test.
(§3) Plantings of these crops and weed species were adjusted to produce plants of appropriate size for the postemergence test. All plant species were grown using normal greenhouse practices. Crop and weed species include annual bluegrass (Poa annua), blackgrass (Alopecurus myosuroides), black nightshade (Solanum nigra), chickweed (Stellaria media), common poppy (Papaver rhoeas), deadnettle (Lamium amplexicaule), downy brome (Bromus tectorum), field violet (Viola arvensis), galium (Galium aparine), green foxtail (Setaria viridis), Italian ryegrass (Lolium multiflorum), jointed goatgrass (Aegilops cylindrica), kochia (Kochia scoparia), lambsquarters (Chenopodium album), littleseed canarygrass (Phalaris minor), rape (Brassica napus), redroot pigweed (Amaranthus retroflexus), Russian thistle (Salsola kali), scentless chamomile (Matricaria inodora), spring barley (Hordeum vulgare), sugar beet (Beta vulgaris), sunflower (Helianthus annuus), ivyleaf speedwell (Veronica hederaefolia), spring wheat (Triticum aestivum), winter wheat (Triticum aestivum), wild buckwheat (Polygonum convolvulus), wild mustard (Sinapis arvensis), wild oat (Avena fatua), windgrass (Apera spica-venti) and winter barley (Hordeum vulgare).
(§4) Treated plants and untreated controls were maintained in a greenhouse for approximately 21 to 28 days, after which all treated plants were compared to untreated controls and visually evaluated. […] A dash response (-) means no test result.

[6] = system: chickweed; assay: Test E chickweed; type: in vivo, Stellaria media; settings: Postemergence
Method: as §2, §3, §4

[7] = system: spring wheat; assay: Test E spring wheat; type: in vivo, Triticum aestivum; settings: Postemergence
Summary of the method: (§5)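 Visual evaluation versus untreated controls after about 21 to 28 days in the greenhouse. Compound was in a surfactant-containing non-phytotoxic solvent; postemergence plants were treated at the 1- to 4-leaf stage, grown in a 60:40 sandy loam and potting mix blend.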

[8] = system: winter barley; assay: Test E winter barley; type: in vivo, Hordeum vulgare; settings: Postemergence
Summary of the method: as §5

[9] = system: lambsquarters; assay: Test E lambsquarters; type: in vivo, Chenopodium album; settings: Postemergence
Method: as §2, §3, §4

[10] = system: surinam grass; assay: Test C postemergence surinam grass; type: in vivo, Brachiaria decumbens; settings: 0 to 100 scale, 0 no effect, 100 complete control
Method: (§6) Compounds evaluated in this test were formulated in a non-phytotoxic solvent mixture which included a surfactant and applied to plants that were grown for various periods of time before treatment (postemergence application). A mixture of sandy loam soil and greenhouse potting mix in a 60:40 ratio was used for the postemergence test.
(§7) Plantings of these crops and weed species were adjusted to produce plants of appropriate size for the postemergence test. All plant species were grown using normal greenhouse practices. Crop and weed species include arrowleaf sida (Sida rhombifolia), barnyardgrass (Echinochloa crus-galli), cocklebur (Xanthium strumarium), common ragweed (Ambrosia elatior), corn (Zea mays), cotton (Gossypium hirsutum), eastern black nightshade (Solanum ptycanthum), fall panicum (Panicum dichotomiflorum), field bindweed (Convolvulus arvensis), giant foxtail (Setaria faberii), hairy beggarticks (Bidens pilosa), ivyleaf morningglory (Ipomoea hederacea), johnsongrass (Sorghum halepense), ladysthumb smartweed (Polygonum persicaria), lambsquarters (Chenopodium album), large crabgrass (Digitaria sanguinalis), purple nutsedge (Cyperus rotundus), redroot pigweed (Amaranthus retroflexus), soybean (Glycine max), surinam grass (Brachiaria decumbens), velvetleaf (Abutilon theophrasti) and wild poinsettia (Euphorbia heterophylla).
(§8) Treated plants and untreated controls were maintained in a greenhouse for approximately 14, to 21 days, after which all treated plants were compared to untreated controls and visually evaluated. Plant response ratings, summarized in Table C, were based upon a 0 to 100 scale where 0 was no effect and 100 was complete control. A dash response (−) means no test result.

[11] = system: field violet; assay: Test E field violet; type: in vivo, Viola arvensis; settings: Postemergence
Summary of the method: as §5

[12] = system: fall panicum; assay: Test C postemergence fall panicum; type: in vivo, Panicum dichotomiflorum; settings: 0 to 100 scale, 0 no effect, 100 complete control
Summary of the method: as §1

[13] = system: galium; assay: Test E galium; type: in vivo, Galium aparine; settings: Postemergence
Method: […] A mixture of sandy loam soil and greenhouse potting mix in a 60:40 ratio was used for the postemergence test.
as §3, §4

[14] = system: velvetleaf; assay: Test C postemergence velvetleaf; type: in vivo, Abutilon theophrasti; settings: 0 to 100 scale, 0 no effect, 100 complete control
Method: as §6, §7, §8

[15] = Rate 125 g/ha, 0 to 100 scale (0 no effect, 100 complete control)
[16] = Rate 250 g/ha, 0 to 100 scale where 0 is no effect and 100 is complete control

With `CC(C)N(C(=O)n1oc(=O)n(C)c1=O)c1ccc(F)cc1` [Compound 138] as the molecule, how does the “Plant response rating, Corn” value ([1]; Rate 280 g/ha) read?
The value was 20.

And the “Plant response rating, Corn” value ([1]; Rate 560 g/ha)?
The value was 50.

What about the “Plant response rating, Corn” value ([1]; Rate 1120 g/ha) of the same molecule?
Its value is 60.

What about the “Plant response rating, Deadnettle” value [2, 15] of the same molecule?
Its value is 65.

What about the “Deadnettle plant response rating (0 to 100 scale)” value ([2]; Rate 250 g/ha) of the same molecule?
The value was 70.

And the “Plant response rating, Wild mustard” value [3, 15]?
The value was 40.

And the “Wild mustard plant response rating (0 to 100 scale)” value ([3]; Rate 250 g/ha)?
Its value is 55.

And the “Plant response rating, Galium” value [4, 15]?
The value was 50.

And the “Galium plant response rating (0 to 100 scale)” value ([4]; Rate 250 g/ha)?
Its value is 70.

What about the “Plant response rating, Kochia” value ([5]; Rate 125 g/ha, 0 to 100 scale) of the same molecule?
Its value is 15.

What about the “Kochia plant response rating” value [5, 16] of the same molecule?
The value was 0.

What about the “Plant response rating, Chickweed” value ([6]; Rate 125 g/ha, 0 to 100 scale) of the same molecule?
The value was 0.

And the “Chickweed plant response rating” value [6, 16]?
The value was 0.

What about the “Plant response rating, Spring Wheat” value ([7]; Rate 125 g/ha, 0 to 100 scale) of the same molecule?
The value was 0.

And the “Spring Wheat plant response rating” value [7, 16]?
Its value is 0.

What about the “Plant response rating, Barley (winter)” value ([8]; Rate 125 g/ha, 0 to 100 scale) of the same molecule?
Its value is 0.

And the “Barley (winter) plant response rating” value [8, 16]?
The value was 0.

And the “Plant response rating Lambsquarters” value ([9]; Rate 125 g/ha, 0 to 100 scale)?
The value was 10.

What about the “Lambsquarters plant response rating” value [9, 16] of the same molecule?
Its value is 30.

What about the “Plant response rating, Surinam grass” value ([10]; Rate 140 g/ha) of the same molecule?
Its value is 10.

What about the “Plant response rating, Surinam grass” value ([10]; Rate 280 g/ha) of the same molecule?
The value was 40.

What about the “Plant response rating, Surinam grass” value ([10]; Rate 560 g/ha) of the same molecule?
The value was 85.

What about the “Plant response rating, Surinam grass” value ([10]; Rate 1120 g/ha) of the same molecule?
The value was 90.

What about the “Plant response rating, Field violet” value ([11]; Rate 125 g/ha, 0 to 100 scale) of the same molecule?
Its value is 10.

And the “Field violet plant response rating” value [11, 16]?
The value was 30.

What about the “Plant response rating Fall panicum” value ([12]; Rate 140 g/ha) of the same molecule?
The value was 0.

What about the “Plant response rating Fall panicum” value ([12]; Rate 280 g/ha) of the same molecule?
The value was 0.

What about the “Plant response rating Fall panicum” value ([12]; Rate 560 g/ha) of the same molecule?
The value was 60.

What about the “Plant response rating Fall panicum” value ([12]; Rate 1120 g/ha) of the same molecule?
Its value is 90.

And the “Plant response rating, Galium” value ([13]; Rate 125 g/ha, 0 to 100 scale)?
The value was 20.

What about the “Galium plant response rating” value [13, 16] of the same molecule?
Its value is 50.

And the “Plant response rating, Velvetleaf” value ([14]; Rate 140 g/ha)?
The value was 0.

And the “Plant response rating, Velvetleaf” value ([14]; Rate 280 g/ha)?
The value was 60.

And the “Plant response rating, Velvetleaf” value ([14]; Rate 560 g/ha)?
Its value is 70.

And the “Plant response rating, Velvetleaf” value ([14]; Rate 1120 g/ha)?
Its value is 80.

— patent publication US6737383B1, “Herbicidal oxadiazolidines” (priority 1999, dated 2004)
